According to patent US20240262826A1, “WILD TYPE KIT INHIBITORS” (Blueprint Medicines Corporation, priority 2022, published 2024):

What follows are molecules tested against wild type c-kit (Homo sapiens (Human), UniProt P10721) (assay: MSD Phospho c-Kit (Tyr721) Assay Whole Cell Lysate Kit in SCF-stimulated M-07e cells (pKIT assay, marked *)). Settings: Meso Scale Discovery (MSD) assay (values marked *).
Assay type: cell-based
Experimental: The ability of compounds of the disclosure (described herein as test compounds) to inhibit autophosphorylation of wild type c-kit was measures using either a PathScan phospho c-kit (Tyr719) sandwich ELISA (CST #7298) or a Phospho c-Kit (Tyr721) Assay Whole Cell Lysate Kit (MSD: 515DPD/catalog number K15119D-2).
For the MSD Phospho c-Kit (Tyr721) Assay Whole Cell Lysate Kit: M-07e cells were maintained in Iscove's Modified Dulbecco's Medium (IMDM) media supplemented with 10% FBS, 5 ng/ml granulocyte-macrophage colony-stimulating factor (GM-CSF) and 100 units/mL Penicillin-Streptomycin, and grown in a 37° C., 5% CO2 in a humidified tissue culture incubator. M-07e cells were washed with phenol red-free, serum-free, GM-CSF-free IMDM and seeded in the same media at 100,000 cells well in a volume of 50 ul in a 96-well U-bottom plate. The cells were incubated for 4 hours, followed by the addition of test compound at a final DMSO concentration of 0.25% for 60 min at 37° C. to generate an 8-point dose concentration series of test compounds. The cells were stimulated with 50 ng/ml human SCF for 10 min at room temperature. Cells were then lysed by the addition of 16.5 ul of PerkinElmer 5× AlphaLISA Lysis Buffer supplemented with Cell Signaling Technologies protease/phosphatase inhibitor. Lysis was encouraged by shaking at 4° C. for 30 minutes.
25 ul of lysate was transferred to the MSD plate and the plate was shaken at 700 rpm at room temperature for one hour, followed by washing 3 times with Tris wash buffer. Next, 25 ul of detection antibody solution (diluted from 50× stock in antibody dilution buffer) was added. After shaking at 700 rpm at room temperature for one hour, the plate was washed 3 times with Tris wash buffer. The plate was then read on MSD Sector Imager immediately after 150 ul of reading buffer added to each well.
An IC50 was calculated using a 4-parameter logistic nonlinear regression.

Chain of wild type c-kit (P10721 26-976): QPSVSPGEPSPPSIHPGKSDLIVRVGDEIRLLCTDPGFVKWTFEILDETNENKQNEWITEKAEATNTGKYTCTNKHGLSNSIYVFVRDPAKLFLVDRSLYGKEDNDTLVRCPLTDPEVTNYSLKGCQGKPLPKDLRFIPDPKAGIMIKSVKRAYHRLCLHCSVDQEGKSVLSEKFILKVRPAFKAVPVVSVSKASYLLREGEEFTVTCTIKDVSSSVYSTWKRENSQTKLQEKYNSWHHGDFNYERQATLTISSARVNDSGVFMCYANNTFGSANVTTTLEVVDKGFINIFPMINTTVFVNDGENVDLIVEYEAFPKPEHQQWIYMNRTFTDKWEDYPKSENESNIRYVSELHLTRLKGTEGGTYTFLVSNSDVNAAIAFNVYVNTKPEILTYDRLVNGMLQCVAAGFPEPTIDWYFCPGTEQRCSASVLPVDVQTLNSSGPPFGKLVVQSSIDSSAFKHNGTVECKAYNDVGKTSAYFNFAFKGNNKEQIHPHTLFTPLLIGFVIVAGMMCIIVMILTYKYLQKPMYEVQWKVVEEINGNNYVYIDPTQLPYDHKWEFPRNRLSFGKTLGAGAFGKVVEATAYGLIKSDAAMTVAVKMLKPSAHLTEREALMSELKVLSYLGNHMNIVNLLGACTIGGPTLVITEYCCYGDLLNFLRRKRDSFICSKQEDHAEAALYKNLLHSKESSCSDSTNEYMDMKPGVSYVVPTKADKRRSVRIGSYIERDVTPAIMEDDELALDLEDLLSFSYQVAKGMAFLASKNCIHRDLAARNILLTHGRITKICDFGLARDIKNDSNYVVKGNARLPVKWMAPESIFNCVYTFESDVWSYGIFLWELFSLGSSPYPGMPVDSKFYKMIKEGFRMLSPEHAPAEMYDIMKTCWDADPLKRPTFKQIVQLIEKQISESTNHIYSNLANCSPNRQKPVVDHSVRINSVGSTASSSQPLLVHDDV

| Structure (SMILES) | IC50 [nM] |
| --- | --- |
| Cc1ccc(-c2nnn([C@H]3C[C@H](C(F)(F)F)C3)n2)cc1NC(=O)c1cnn2ccccc12 [Example 24, N-(2-methyl-5-(2-((1r,3r)-3-(trifluoromethyl)cyclobutyl)-2H-tetrazol-5-yl)phenyl)pyrazolo[1,5-a]pyridine-3-carboxamide or N-(2-methyl-5-(2-((1s,3s)-3-(trifluoromethyl)cyclobutyl)-2H-tetrazol-5-yl)phenyl)pyrazolo[1,5-a]pyridine-3-carboxamide] | 2.1 |
| Cc1ccc(-c2nnn(C[C@@H]3CC3(F)F)n2)cc1NC(=O)c1cnn2ccccc12 (single isomer, unassigned) [Example 25, (S)—N-(5-(2-((2,2-difluorocyclopropyl)methyl)-2H-tetrazol-5-yl)-2-methylphenyl)pyrazolo[1,5-a]pyridine-3-carboxamide or (R)—N-(5-(2-((2,2-difluorocyclopropyl)methyl)-2H-tetrazol-5-yl)-2-methylphenyl)pyrazolo[1,5-a]pyridine-3-carboxamide] | 7.6 |
| Cc1ccc(-c2nnn(C3CC(F)(F)C3)n2)cc1NC(=O)c1cnn2ccc(-c3cnn(CCO)c3)cc12 [Example 46, N-(5-(2-(3,3-difluorocyclobutyl)-2H-tetrazol-5-yl)-2-methylphenyl)-5-(1-(2-hydroxyethyl)-1H-pyrazol-4-yl)pyrazolo[1,5-a]pyridine-3-carboxamide] | 0.6 |
| Cc1ccc(-c2nnn([C@H]3C[C@@H](C(F)(F)F)C3)n2)cc1NC(=O)c1cnn2ccccc12 [Example 23, N-(2-methyl-5-(2-((1s,3s)-3-(trifluoromethyl)cyclobutyl)-2H-tetrazol-5-yl)phenyl)pyrazolo[1,5-a]pyridine-3-carboxamide or N-(2-methyl-5-(2-((1r,3r)-3-(trifluoromethyl)cyclobutyl)-2H-tetrazol-5-yl)phenyl)pyrazolo[1,5-a]pyridine-3-carboxamide] | 2.6 |
| Cc1ccc(-n2nnc(C3CC3)n2)cc1NC(=O)c1cnn2ccccc12 [Example 152, N-(5-(5-cyclopropyl-2H-tetrazol-2-yl)-2-methylphenyl)pyrazolo[1,5-a]pyridine-3-carboxamide] | 3.6 |
| Cc1ccc(-c2nnn(CCOCC(F)(F)F)n2)cc1NC(=O)c1cnn2ccccc12 [Example 158, N-(2-methyl-5-(2-(2-(2,2,2-trifluoroethoxy)ethyl)-2H-tetrazol-5-yl)phenyl)pyrazolo[1,5-a]pyridine-3-carboxamide] | 5.7 |
| COC(=O)N1CC(c2cnn(-c3ccc(Cl)c(NC(=O)c4cnn5ccccc45)c3)n2)C1 [Example 193] | 5.2 |
| Cc1ccc(-n2nnc(C3CN(S(=O)(=O)C4CC4)C3)n2)cc1NC(=O)c1cnn2ccccc12 [Example 188, N-(5-(5-(1-(cyclopropylsulfonyl)azetidin-3-yl)-2H-tetrazol-2-yl)-2-methylphenyl)pyrazolo[1,5-a]pyridine-3-carboxamide] | 2.9 |
| Cc1ccc(-c2nnn(C3CN(S(=O)(=O)C(F)(F)F)C3)n2)cc1NC(=O)c1cnn2ccccc12 [Example 182] | 4 |
| CS(=O)(=O)N1CC(c2nnn(-c3ccc(Cl)c(NC(=O)c4cnn5ccccc45)c3)n2)C1 [Example 187] | 6.2 |
| COC(=O)N1CC(c2nnn(-c3ccc(Cl)c(NC(=O)c4cnn5ccccc45)c3)n2)C1 [Example 194] | 11.6 |
| Cc1ccc(-c2nnn(CC34CC(F)(C3)C4)n2)cc1NC(=O)c1cnn2ccccc12 [Example 30, N-(5-(2-((3-fluorobicyclo[1.1.1]pentan-1-yl)methyl)-2H-tetrazol-5-yl)-2-methylphenyl)pyrazolo[1,5-a]pyridine-3-carboxamide] | 2.7 |
| Cc1ccc(-c2nnn(CC3CCOCC3)n2)cc1NC(=O)c1cnn2ccccc12 [Example 3, N-(2-methyl-5-(2-((tetrahydro-2H-pyran-4-yl)methyl)-2H-tetrazol-5-yl)phenyl)pyrazolo[1,5-a]pyridine-3-carboxamide] | 8.4 |
| Cc1ccc(-c2nnn(CC3CCCCO3)n2)cc1NC(=O)c1cnn2ccccc12 (stereo not shown) [Example 34, N-(2-methyl-5-(2-((tetrahydro-2H-pyran-2-yl)methyl)-2H-tetrazol-5-yl)phenyl)pyrazolo[1,5-a]pyridine-3-carboxamide] | 9.5 |

Other lines, results leading:

| IC50 [nM] | Structure (SMILES) |
| --- | --- |
| 6.2 | Cc1ccc(-c2nnn([C@H](C)C3CC3)n2)cc1NC(=O)c1cnn2ccccc12 (single isomer, unassigned) [Example 37, (R)-N-(5-(2-(1-cyclopropylethyl)-2H-tetrazol-5-yl)-2-methylphenyl)pyrazolo[1,5-a]pyridine-3-carboxamide or (S)-N-(5-(2-(1-cyclopropylethyl)-2H-tetrazol-5-yl)-2-methylphenyl)pyrazolo[1,5-a]pyridine-3-carboxamide] |
| 4.5 | Cc1ccc(-c2nnn(CC3CC3(F)F)n2)cc1NC(=O)c1cnn2ccccc12 (stereo not shown) [Example 6, N-(5-(2-((2,2-difluorocyclopropyl)methyl)-2H-tetrazol-5-yl)-2-methylphenyl)pyrazolo[1,5-a]pyridine-3-carboxamide] |
| 9.1 | Cc1ccc(-c2nnn(C(C)C3CCOCC3)n2)cc1NC(=O)c1cnn2ccccc12 (single isomer, unassigned) [Example 39, (R)-N-(2-methyl-5-(2-(1-(tetrahydro-2H-pyran-4-yl)ethyl)-2H-tetrazol-5-yl)phenyl)pyrazolo[1,5-a]pyridine-3-carboxamide or (S)-N-(2-methyl-5-(2-(1-(tetrahydro-2H-pyran-4-yl)ethyl)-2H-tetrazol-5-yl)phenyl)pyrazolo[1,5-a]pyridine-3-carboxamide] |
| 1.6 | Cc1ccc(-c2nnn(Cc3ccccc3F)n2)cc1NC(=O)c1cnn2ccccc12 [Example 13, N-(5-(2-(2-fluorobenzyl)-2H-tetrazol-5-yl)-2-methylphenyl)pyrazolo[1,5-a]pyridine-3-carboxamide] |
| 2.7 | Cc1ccc(-c2nnn([C@@H](C)c3ccccc3F)n2)cc1NC(=O)c1cnn2ccccc12 [Example 33, (S)-N-(5-(2-(1-(2-fluorophenyl)ethyl)-2H-tetrazol-5-yl)-2-methylphenyl)pyrazolo[1,5-a]pyridine-3-carboxamide] |
| 7.2 | Cc1ccc(-c2nnn([C@H](C)C3CC3)n2)cc1NC(=O)c1cnn2ccccc12 (single isomer, unassigned) [Example 38, (S)-N-(5-(2-(1-cyclopropylethyl)-2H-tetrazol-5-yl)-2-methylphenyl)pyrazolo[1,5-a]pyridine-3-carboxamide or (R)-N-(5-(2-(1-cyclopropylethyl)-2H-tetrazol-5-yl)-2-methylphenyl)pyrazolo[1,5-a]pyridine-3-carboxamide] |
| 2.4 | Cc1ccc(-c2nnn(C[C@H]3CC3(F)F)n2)cc1NC(=O)c1cnn2ccccc12 (single isomer, unassigned) [Example 26, (R)—N-(5-(2-((2,2-difluorocyclopropyl)methyl)-2H-tetrazol-5-yl)-2-methylphenyl)pyrazolo[1,5-a]pyridine-3-carboxamide or (S)—N-(5-(2-((2,2-difluorocyclopropyl)methyl)-2H-tetrazol-5-yl)-2-methylphenyl)pyrazolo[1,5-a]pyridine-3-carboxamide] |
| 2.7 | Cc1ccc(-c2nnn(C3CCC3)n2)cc1NC(=O)c1cnn2ccccc12 [Example 8, N-(5-(2-cyclobutyl-2H-tetrazol-5-yl)-2-methylphenyl)pyrazolo[1,5-a]pyridine-3-carboxamide] |
